Where two headings read alike, the source gives them in different places.
Tests used:
adult S. japonicum = experiment: microbe, parasite or virus in culture; type: cell-based; settings: for killing at 100 µM / Killing activity 24hr / Killing activity 48hr / Killing activity 72hr / killing at 25 µM / killing at 50 µM: adult worms
Text: ICR mice (20–22 g), were obtained from the Shanghai Sub-Center of Experimental Animals, Chinese Academy of Sciences. They were maintained at the Department of Experimental Animals, Jiangsu Institute of Parasitic Diseases. To infect each mouse, its abdominal skin was exposed to 50 S. japonica cercariae. All of the mice were executed to collect S. japonica adult worms, through portal vein perfusion, 35 days post-infection. The adult S. japonica collected were washed with RPMI 1640 medium and then kept in RPMI 1640 medium (pH 7.5) with HEPES 20 mM, penicillin (100 IU/mL), streptomycin ([…]) and 10 % fetal bovine serum. Then, two pairs of adult worms were transferred into each well of a 24-well culture plate, with 2 mL of the same medium. The worms were cultured at 37 °C in a humid atmosphere with 5 % CO2.
Adult worms were cultured in a 24-well culture plate for 30–60 min at 37 °C, in a humid atmosphere with 5 % CO2. Then, oxadiazole-2-oxides at different concentrations (10, 25, 50, 100 μM) were added. Equal volumes of RPMI 1640 or DMSO were applied as negative controls, while PZQ was applied as a positive control. The adult worm mobility and parasite survival rates were monitored using an inverted phase contrast microscope, at 24, 48 and 72 h. Parasite death was defined as there being no motor activity during 2 min of continuous observation, and morphological and tegumental alterations. All assays were repeated three times.
^b Data collected by visual examination of worm movement and shape; n.e. […] The data presented are the average of three independent experiments.

recombinant SjTGR = biological target: T1, recombinant SjTGR (Schistosoma japonicum, UniProt B5THG7); experiment: Inhibition of TrxR activity of recombinant SjTGR (DTNB assay); type: biochemical; settings: 50 nM SjTGR, 1 mM NADPH, 15 min preincubation, DTNB reduction; read-out: IC50 of SjTGR
T1 sequence (B5THG7 1-596): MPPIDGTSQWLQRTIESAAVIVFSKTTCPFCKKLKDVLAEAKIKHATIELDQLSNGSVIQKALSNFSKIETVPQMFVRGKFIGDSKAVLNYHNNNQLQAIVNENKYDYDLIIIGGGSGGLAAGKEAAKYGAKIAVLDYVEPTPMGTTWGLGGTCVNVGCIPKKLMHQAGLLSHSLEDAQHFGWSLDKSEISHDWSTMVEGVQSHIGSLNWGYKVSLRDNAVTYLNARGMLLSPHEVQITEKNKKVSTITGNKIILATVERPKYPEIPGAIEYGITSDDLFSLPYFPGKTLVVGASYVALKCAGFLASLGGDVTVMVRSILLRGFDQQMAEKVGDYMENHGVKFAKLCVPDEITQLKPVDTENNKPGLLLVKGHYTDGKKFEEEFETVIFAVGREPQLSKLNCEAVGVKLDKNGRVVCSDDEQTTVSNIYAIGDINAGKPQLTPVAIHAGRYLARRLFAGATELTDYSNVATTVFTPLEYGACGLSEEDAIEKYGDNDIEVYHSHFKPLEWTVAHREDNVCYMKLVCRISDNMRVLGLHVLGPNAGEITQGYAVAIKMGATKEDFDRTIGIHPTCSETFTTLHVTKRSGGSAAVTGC
Procedure: The purified recombinant SjTGR proteins were produced according to the method described by Song et al.. The inhibition of TrxR activity by the recombinant SjTGR was performed as reported by Rai et al.. Briefly, 50 nM SjTGR and 1 mM NADPH were incubated with different concentrations of oxadiazole-2-oxides (2, 4, 6, 10, 20 μM) for 15 min at room temperature. Then, potassium phosphate buffer (pH 7.4) containing 10 mM EDTA, 100 μM NADPH, and 3 mM DTNB was added to start the reaction. The increase of absorbance at 412 nm was monitored during the first 2 min. All assays were done in triplicate.
50 nM SjTGR and 1 mM NADPH were incubated with different concentrations of oxadiazole-2-oxides (2, 4, 6, 10, 20 μM) for 15 min at room temperature. Then, potassium phosphate buffer (pH 7.4) containing 10 mM EDTA, 100 μM NADPH, 3 mM DTNB was added to start the reaction. The increase in absorbance at 412 nm was monitored during the first 2 min. All assays were done in triplicate. Results shown are the mean ± SD (n = 3)

juvenile S. japonicum = experiment: microbe, parasite or virus in culture; type: cell-based; settings: for killing at 2 µM / killing at 5 µM / killing at 50 µM / Killing activity 24hr / Killing activity 48hr / Killing activity 72hr: juvenile worms; for Killing activity 24hr / Killing activity 48hr / Killing activity 72hr: 10 μM
Procedure: Infected Oncomelania hupensis, provided by the Department of Snail Biology, Jiangsu Institute of Parasitic Diseases, were incubated at 25–28 °C, under illumination, for 2 h to hatch S. japonicum cercariae. The cercariae were collected from the water surface with clean cover glass and placed into a centrifuge tube using pre cooled RPMI 1640. Centrifugation was performed for 1 min at 1500 rpm, and then the steps above were repeated. After centrifugation, the supernatant solution was removed. The cercariae at the bottom were washed twice and resuspended with RPMI 1640. Approximately 20–30 cercariae (1 mL of the resuspension medium) were added to one well in a 24-well culture plate. They were incubated overnight at 37 °C with 5 % CO2. The survival rates and number of tails shed were observed under an inverted microscope. Cercariae that had shed their tails were used as juvenile S. japonicum.
20–30 juvenile worms were transferred into each well of a 24-well culture plate, containing 2 mL RPMI 1640 medium, 20 mM HEPES, 100 IU/mL penicillin, […] streptomycin and 10 % fetal bovine serum. Then, oxadiazole-2-oxides (2, 5, 10, and 50 μM), diluted with the RPMI 1640 medium, were added to their allocated wells. The worms in the negative control wells were treated with equal volumes of RPMI 1640 or DMSO and worms treated with AS were observed as positive controls. The juvenile worms’ survival rates were observed under an inverted phase contrast microscope (Leica, Wetzlar, Germany) at 24, 48 and 72 h. Parasite death was defined as an unclear internal structure of the juvenile worms, with incomplete tegument and contents overflowing radially, or unclear internal structure with complete tegument, but having no motor activity during 1 min of continuous observation. All assays were repeated three times.
^b Data collected by visual examination of worm movement and shape; % D = The number of worms dead / The total number of worms observed, and worms dead judged by unclear internal structure of juvenile worms with uncompleted tegument, and contents overflowing radially, or unclear internal structure with complete tegument, but having no motor activity during 1 min of continuous observation. The data presented are the average of three independent experiments.

[1] = Schistosoma japonicum, 24 h, read-out: Killing activity 24hr
[2] = Schistosoma japonicum, 48 h, read-out: Killing activity 48hr
[3] = Schistosoma japonicum, 72 h, read-out: Killing activity 72hr

Structure (SMILES)	killing at 100 µM (adult S. japonicum; [1]) [%]	killing at 100 µM (adult S. japonicum; [2]) [%]	killing at 100 µM (adult S. japonicum; [3]) [%]	Killing activity 24hr (adult S. japonicum; 10 μM, 24 h)	Killing activity 48hr (adult S. japonicum; 10 μM, 48 h)	Killing activity 72hr (adult S. japonicum; 10 μM, 72 h)	IC50 (recombinant SjTGR) [µM]	killing at 2 µM (juvenile S. japonicum; [1]) [%]	killing at 2 µM (juvenile S. japonicum; [2]) [%]	killing at 2 µM (juvenile S. japonicum; [3]) [%]	killing at 5 µM (juvenile S. japonicum; [1]) [%]	killing at 5 µM (juvenile S. japonicum; [2]) [%]	killing at 5 µM (juvenile S. japonicum; [3]) [%]	killing at 50 µM (juvenile S. japonicum; [1]) [%]	killing at 50 µM (juvenile S. japonicum; [2]) [%]	killing at 50 µM (juvenile S. japonicum; [3]) [%]	Killing activity 24hr (juvenile S. japonicum; 24 h) [%D]	Killing activity 48hr (juvenile S. japonicum; 48 h) [%D]	Killing activity 72hr (juvenile S. japonicum; 72 h) [%D]	further results
[O-][n+]1onc(-c2ccc(Br)cc2)c1CO [Compound 4c]	57.1	71.4	71.4	n.e.	n.e.	n.e.	8.6	15	20	20	24.5	24.5	26.4	25.8	25.8	51.6	7.1	14.3	17.9	mortality at 100 µM (adult S. japonicum; Schistosoma japonicum, read-out: Mortality of adult worms): 57.1 ± 2.3%; Killing activity 24hr (adult S. japonicum; 25 μM, 24 h): n.e.; Killing activity 48hr (adult S. japonicum; 25 μM, 48 h): n.e.; Killing activity 72hr (adult S. japonicum; 25 μM, 72 h): n.e.; Killing activity 24hr (adult S. japonicum; 50 μM, 24 h): n.e.; Killing activity 48hr (adult S. japonicum; 50 μM, 48 h): n.e.; Killing activity 72hr (adult S. japonicum; 50 μM, 72 h): n.e.; mortality at 50 µM (juvenile S. japonicum; Schistosoma japonicum, 24 h, read-out: Mortality of juvenile worms): < 30%
N#Cc1c(-c2ccc(OCCCCBr)cc2)no[n+]1[O-] [Compound 14]	100	100	100	33.3%D	44.4%D	77.8%D	15.5	21.6	31.1	35.1	26.4	33.3	38.9	46.4	66.4	80	30.4	69.6	69.6	mortality at 25 µM (adult S. japonicum; Schistosoma japonicum, 24 h, read-out: Mortality of adult worms): > 75%; killing at 25 µM (adult S. japonicum; Schistosoma japonicum, 25 μM, 24 h, read-out: Killing activity 24hr): 75%; killing at 25 µM (adult S. japonicum; Schistosoma japonicum, 25 μM, 48 h, read-out: Killing activity 48hr): 87.5%; killing at 25 µM (adult S. japonicum; Schistosoma japonicum, 25 μM, 72 h, read-out: Killing activity 72hr): 100%; killing at 50 µM (adult S. japonicum; Schistosoma japonicum, 50 μM, 24 h, read-out: Killing activity 24hr): 100%; killing at 50 µM (adult S. japonicum; Schistosoma japonicum, 50 μM, 48 h, read-out: Killing activity 48hr): 100%; killing at 50 µM (adult S. japonicum; Schistosoma japonicum, 50 μM, 72 h, read-out: Killing activity 72hr): 100%
